Reference: PMC12955902 (Advanced Science, 2025)

Columns and labels:
[1] = molecular target: T1, HU protein of S. pyogenes (Streptococcus pyogenes, UniProt Q5XB35); assay: WaterLOGSY NMR; type: binding; settings: 10 µM HU, 400 µM compound; 50 mM NaCl, 20 mM Tris, pH 7.4, 5% DMSO, 10% D2O, 298 K
T1 construct: gene hup

[2] = molecular target: T2, HU protein of M. tuberculosis (Mycobacterium tuberculosis, UniProt P9WMK7)
T2 construct: gene hupB

SaHU = molecular target: T3, SaHU (Staphylococcus aureus, UniProt Q99U17); assay: microscale thermophoresis; type: binding
T3 sequence (Q99U17 1-90): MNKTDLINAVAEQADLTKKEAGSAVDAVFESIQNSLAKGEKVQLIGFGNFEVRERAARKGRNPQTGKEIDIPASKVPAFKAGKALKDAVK

T2 sequence (P9WMK7 2-216): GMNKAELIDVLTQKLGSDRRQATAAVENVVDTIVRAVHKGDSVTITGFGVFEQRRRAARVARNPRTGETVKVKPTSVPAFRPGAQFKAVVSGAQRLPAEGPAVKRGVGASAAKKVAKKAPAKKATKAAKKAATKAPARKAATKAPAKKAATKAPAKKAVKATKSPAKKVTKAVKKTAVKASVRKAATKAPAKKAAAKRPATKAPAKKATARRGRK
T1 sequence (Q5XB35 whole entry): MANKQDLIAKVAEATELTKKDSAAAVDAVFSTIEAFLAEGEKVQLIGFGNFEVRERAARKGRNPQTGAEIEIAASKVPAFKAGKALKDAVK

| SMILES | WaterLOGSY NMR [1] | WaterLOGSY NMR [2] | Kd (SaHU) [µM] |
| --- | --- | --- | --- |
| O=C(/C=C/c1cccc(S(=O)(=O)Nc2ccccc2)c1)NO [Belinostat] | including A. baumannii, S. pneumoniae, B. subtilis, M. tuberculosis and S. pyogenes | including A. baumannii, S. pneumoniae, B. subtilis, M. tuberculosis and S. pyogenes | 4.24 ± 0.24 |
| O=C(/C=C/c1ccccc1)NO [CHA] | – | – | 5.77 ± 0.93 |
